Data from paper PMC3352596 (Bioorganic & medicinal chemistry letters, 2011).

Tests used:
[1] = tested on: HCV; details: non-obligatory chain terminators toward RNA elongation; cited from earlier work
[2] = cited from earlier work
[3] = tested on: Huh7 cells; experiment: cytotoxicity in Huh7 cells by amplification of ribosomal RNA; assay type: cell-based; details: for inhibition at 10 µM: Homo sapiens, Huh-7, read-out: Anti-HCV activity: % inhib @ 10 μM in Huh7 cells, rRNA; for cytotoxicity / toxicity to cell lines: Huh7, PBM, CEM, Vero cell lines
[4] = tested on: HCV RNA replication (subgenomic HCV replicon); experiment: inhibition of HCV RNA replication in Huh7 cells, subgenomic HCV replicon system; assay type: cell-based, Hepatitis C virus; details: for inhibition at 10 µM: Hepatitis C virus, Huh-7, read-out: Anti-HCV activity: % inhib @ 10 μM in Huh7 cells, HCV, 10 μM, Huh7 cells, HCV RNA; for antiviral activity or cytotoxicity: anti-HCV, anti-HIV and cytotoxicity assays of Table 1
[5] = target: T1, adenosine deaminase (Bos taurus, UniProt P56658); experiment: inhibition of ADA catalyzed conversion of adenosine to inosine; assay type: biochemical; details: compounds tested at 10 μM
T1 sequence (P56658 1-363): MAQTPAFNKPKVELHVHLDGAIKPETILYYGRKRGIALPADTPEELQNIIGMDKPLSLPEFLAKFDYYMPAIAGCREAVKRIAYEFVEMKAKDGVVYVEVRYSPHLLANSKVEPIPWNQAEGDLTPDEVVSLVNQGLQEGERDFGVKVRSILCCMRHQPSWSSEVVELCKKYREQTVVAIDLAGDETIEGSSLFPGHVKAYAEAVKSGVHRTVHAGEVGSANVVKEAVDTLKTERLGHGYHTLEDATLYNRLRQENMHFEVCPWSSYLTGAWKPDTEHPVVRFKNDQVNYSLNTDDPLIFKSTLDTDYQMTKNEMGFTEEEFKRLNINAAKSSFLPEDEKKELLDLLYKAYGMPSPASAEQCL

[6] = target: T1, adenosine deaminase; experiment: evaluation as substrates of adenosine deaminase; assay type: biochemical
[7] = stability in pH 7.4 phosphate buffer; assay type: physicochemical; details: 23 °C, 3 days
[8] = cytotoxicity in CEM cells; assay type: cell-based; details: human, lymphoblastoid CEM cells

## C[C@@]1(O)[C@H](O)[C@@H](CO)O[C@H]1n1cnc2c(N)ncnc21 [Compound 1, 2′-C-Methyl adenosine]
[1]
  in vitro anti-HCV activity: selective in vitro anti-HCV activity
[2]
  in vivo bioavailability: poor bioavailability

## C[C@@]1(O)[C@H](O)[C@@H](CO)O[C@H]1n1cnc2c(=O)[nH]c(N)nc21 [Compound 2, 2′-C-methyl guanosine]
[1]
  in vitro anti-HCV activity: selective in vitro anti-HCV activity
[2]
  in vivo bioavailability: poor bioavailability

## Cc1nc(N)nc2c1ncn2[C@@H]1O[C@H](CO)[C@@H](O)[C@@]1(C)O [Compound 6]
[3]
  inhibition at 10 µM: 0%

## CCOC(=O)[C@H](C)NP(=O)(OC[C@H]1O[C@@H](n2cnc3c(C)nc(N)nc32)[C@](C)(O)[C@@H]1O)Oc1ccccc1 (stereo partly shown) [Compound 7]
[4]; up to 10 μM
  anti-HCV activity / inhibition of HCV replicon RNA replication: did not display any inhibition of HCV replicon RNA replication
[3]
  inhibition at 10 µM: 0%

## CCOP(=O)(OCC)c1nc(N)nc2c1ncn2[C@@H]1O[C@H](CO)[C@@H](O)[C@@]1(C)O [Compound 9]
[4]
  inhibition at 10 µM: 18.7%
[3]
  inhibition at 10 µM: 14.8%
[5]
  ability to inhibit ADA catalyzed conversion of adenosine to inosine: Only compound 21 was found effective
[6]
  substrate of adenosine deaminase (nitrogen to oxygen transformation): none underwent a nitrogen to oxygen transformation

## CCOP(=O)(O)c1nc(N)nc2c1ncn2[C@@H]1O[C@H](CO)[C@@H](O)[C@@]1(C)O [Compound 10]
[4]
  inhibition at 10 µM: 19.3%
[5]
  ability to inhibit ADA catalyzed conversion of adenosine to inosine: Only compound 21 was found effective
[6]
  substrate of adenosine deaminase (nitrogen to oxygen transformation): none underwent a nitrogen to oxygen transformation

## Cc1nc2c3ncn([C@@H]4O[C@H](CO)[C@@H](O)[C@@]4(C)O)c3nc(N)n2n1 [Compound 13a]
[3]
  inhibition at 10 µM: 0%

## C[C@@]1(O)[C@H](O)[C@@H](CO)O[C@H]1n1cnc2c1nc(N)n1nc(-c3ccco3)nc21 [Compound 13b]
[3]
  inhibition at 10 µM: 0%
[5]
  ability to inhibit ADA catalyzed conversion of adenosine to inosine: Only compound 21 was found effective

## C[C@@]1(O)[C@H](O)[C@@H](CO)O[C@H]1n1cnc2c(N)nc(Cl)nc21 [Compound 17]
[4]
  antiviral activity or cytotoxicity: no antiviral activity or cytotoxicity

## COc1nc(Cl)nc2c1ncn2[C@@H]1O[C@H](CO)[C@@H](O)[C@@]1(C)O [Compound 18]
[4]
  inhibition at 10 µM: 14.3%
  antiviral activity or cytotoxicity: no antiviral activity or cytotoxicity

## C[C@@]1(O)[C@H](O)[C@@H](CO)O[C@H]1n1cnc2c(N)nc(NN)nc21 [Compound 19]
[3]
  cytotoxicity / toxicity to cell lines: no observed cytotoxicity
[7]
  stability in phosphate buffer: complete conversion of 19 to a complex mixture of products after 3 days

## C[C@@]1(O)[C@H](O)[C@@H](CO)O[C@H]1n1cnc2c(N)nc(N=[N+]=[N-])nc21 [Compound 20]
[4]
  antiviral activity or cytotoxicity: no antiviral activity or cytotoxicity
[3]
  inhibition at 10 µM: 0%

## C[C@@]1(O)[C@H](O)[C@@H](CO)O[C@H]1n1cnc2c(N)nc(-n3ccnn3)nc21 [Compound 21]
[4]
  antiviral activity or cytotoxicity: no antiviral activity or cytotoxicity
[3]
  inhibition at 10 µM: 0%
[5]
  ability to inhibit ADA catalyzed conversion of adenosine to inosine: effective
[6]
  substrate of adenosine deaminase (nitrogen to oxygen transformation): none underwent a nitrogen to oxygen transformation

## C[C@@]1(O)[C@H](O)[C@@H](CO)O[C@H]1n1cnc2c(N)nc(-n3cc([Si](C)(C)C)nn3)nc21 [Compound 22]
[4]
  antiviral activity or cytotoxicity: no antiviral activity or cytotoxicity
[3]
  inhibition at 10 µM: 0%

## C[C@@]1(OC(=O)c2ccccc2)[C@H](OC(=O)c2ccccc2)[C@@H](COC(=O)c2ccccc2)O[C@H]1n1cnc2c(N)nc(NO)nc21 [Compound 26]
[3]
  cytotoxicity / toxicity to cell lines: broad toxicity against most cell lines tested
[8]
  CC50: 27.4 µM

## C[C@@]1(OC(=O)c2ccccc2)[C@H](OC(=O)c2ccccc2)[C@@H](COC(=O)c2ccccc2)O[C@H]1n1cnc2c(Cl)nc(NO)nc21 [Compound 27]
[3]
  inhibition at 10 µM: 99.9%
  cytotoxicity / toxicity to cell lines: broad toxicity against most cell lines tested

## C[C@@]1(O)[C@H](O)[C@@H](CO)O[C@H]1n1cnc2c(N)n[nH]c(=O)c21 [Compound 32, 4-amino-1-(2-methyl-β-D-ribofuranosyl)-3H-imidazo[4,5-d] pyriazin-7-(6H)-one]
[3]
  inhibition at 10 µM: 0%
[5]
  ability to inhibit ADA catalyzed conversion of adenosine to inosine: Only compound 21 was found effective
[6]
  substrate of adenosine deaminase (nitrogen to oxygen transformation): none underwent a nitrogen to oxygen transformation

## C[C@@]1(O)[C@H](O)[C@@H](CO)O[C@H]1n1cnc2c(=N)n(N)[nH]c(=O)c21 [Compound 33]
[3]
  inhibition at 10 µM: 0%

## C[C@@]1(O)[C@H](O)[C@@H](CO)O[C@H]1n1cnc2c(=O)[nH]nc(N)c21 [Compound 35, 7-amino-1-(2-methyl-δ -D-ribofuranosyl)-1H-imidazo [4,5-d] pyridazin-4-(5H)-one]
[3]
  inhibition at 10 µM: 0%
[5]
  ability to inhibit ADA catalyzed conversion of adenosine to inosine: Only compound 21 was found effective
